Test results from PubChem BioAssay AID540315 (Broad Institute, 2011).
Activity calls are given as the source filed them.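 Rule for the calls: active = compounds lowering cell viability whose fitted half-effect dose is at most ten times the top tested dose; inconclusive = flat curve with moderate viability loss, or a poor fit; inactive = the rest.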

System: not listed separately
Assay: viability loss in DRD cells, dose response, cell-based, secondary screen, plate reader, dry powder, set 4 (AID 540315)
Details: DRD HRASV12-transformed BJ fibroblasts viability, Alamar Blue, 48 h; at 48 µM (top of the series)

With `Cc1onc(C(=O)N2CCN(Cc3ccccc3)CC2)c1[N+](=O)[O-]` the activity change, negative = viability loss was -2.4% (inactive).

System: DRD HRASV12-transformed BJ fibroblasts viability, Alamar Blue, 48 h
Assay: as above
Details: not given

Compared with `Cc1onc(C(=O)N2CCN(C(c3ccc(Cl)cc3)c3ccc(Cl)cc3)CC2)c1[N+](=O)[O-]`, `Cc1onc(C(=O)N2CCN(C(c3ccccc3)c3ccc(Cl)cc3)CC2)c1[N+](=O)[O-]` (centres undefined) is 2-fold higher in AC50: 0.287 µM for the first, 0.585 µM for the second.

`COc1ccc(C(c2ccc(OC)cc2)N2CCN(C(=O)c3noc(C)c3[N+](=O)[O-])CC2)cc1` and `COc1ccc(C(c2ccc(OC)cc2)N2CCN(C(=O)c3ccc([N+](=O)[O-])o3)CC2)cc1` are within 1.5-fold of each other in AC50: 4.37 µM for the first, 5.84 µM for the second.

Compared with `Cc1onc(C(=O)NCCNC(c2ccccc2)c2ccccc2)c1[N+](=O)[O-]`, `O=C(NCCNC(c1ccccc1)c1ccccc1)c1ccc([N+](=O)[O-])o1` is 7.8-fold lower in AC50: 43.8 µM for the first, 5.59 µM for the second.

`Cc1onc(C(=O)N2CCN(C(c3ccccc3)c3ccccc3)CC2)c1[N+](=O)[O-]` and `Cc1onc(C(=O)N2CCCN(C(c3ccccc3)c3ccccc3)CC2)c1[N+](=O)[O-]` are within 1.5-fold of each other in AC50: 2.64 µM for the first, 3.87 µM for the second.

Going from `Cc1onc(C(=O)N2CCN(C(c3ccc(F)cc3)c3ccc(F)cc3)CC2)c1[N+](=O)[O-]` to `Cc1onc(CC(=O)N2CCN(C(c3ccc(F)cc3)c3ccc(F)cc3)CC2)c1[N+](=O)[O-]`, the AC50 rises from 0.784 µM to 30.9 µM (39-fold).

Going from `CCOc1ccccc1-n1c(C(C)N2CCN(C(=O)COc3ccc(Cl)cc3)CC2)nc2ccccc2c1=O` (centres undefined) to `O=C(c1ccc([N+](=O)[O-])o1)N1CCN(C(c2ccc(F)cc2)c2ccc(F)cc2)CC1`, the AC50 rises from 2.16 µM to 10.7 µM (5-fold).

Molecule `COC(=O)c1ccc([C@@H]2c3[nH]c4ccccc4c3C[C@@H](C(=O)OC)N2C(=O)CCl)cc1` has an AC50 of 0.604 µM.
